Test results published in patent US20140323504A1, “Pyrazolo[4,3-c]Pyridine Derivatives As Kinase Inhibitors” (Cellzome Limited, priority 2011, published 2014).
Where two headings read alike, the source gives them in different places.

Experiments:
BTK = target: T1, BTK (Homo sapiens, UniProt Q06187); test: Kinobeads assay with quantitative mass spectrometry, BTK; assay type: binding; settings: Jurkat/Ramos lysate, read-out: BTK inhibition value (IC50)
T1 construct: purchased ProQinase GmbH, Freiburg, Germany
T1 sequence (Q06187 whole entry): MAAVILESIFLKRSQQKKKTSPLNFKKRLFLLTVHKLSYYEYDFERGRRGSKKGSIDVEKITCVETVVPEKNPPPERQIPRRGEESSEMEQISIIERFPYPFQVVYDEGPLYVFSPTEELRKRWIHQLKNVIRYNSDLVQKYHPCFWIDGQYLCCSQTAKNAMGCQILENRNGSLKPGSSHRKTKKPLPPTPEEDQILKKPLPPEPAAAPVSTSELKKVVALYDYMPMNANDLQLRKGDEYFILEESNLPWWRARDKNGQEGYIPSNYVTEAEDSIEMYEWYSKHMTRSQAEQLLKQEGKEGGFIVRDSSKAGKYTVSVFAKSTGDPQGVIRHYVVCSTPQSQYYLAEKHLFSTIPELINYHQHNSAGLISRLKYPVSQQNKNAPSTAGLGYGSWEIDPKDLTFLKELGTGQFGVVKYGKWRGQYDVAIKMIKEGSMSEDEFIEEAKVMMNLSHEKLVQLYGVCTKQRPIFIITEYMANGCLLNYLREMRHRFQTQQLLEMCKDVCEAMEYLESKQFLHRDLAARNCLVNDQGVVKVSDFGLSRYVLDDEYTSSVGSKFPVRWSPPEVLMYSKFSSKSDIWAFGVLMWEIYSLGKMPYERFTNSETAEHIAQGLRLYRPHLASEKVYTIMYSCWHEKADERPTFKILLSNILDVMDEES
Description: (§1) Selected compounds of the present invention as described in the previous examples were tested in a Kinobeads™ assay as described (WO-A 2006/134056; Bantscheff et al., 2007. Nature Bioteclmol. 25, 1035-1044).
(§2) Compounds were incubated with cell lysate aliquots (1:1 mix of Jurkat and Ramos cell lysates) for 45 minutes at 4° C. and allowed to bind to the proteins in the lysate sample. Then the Kinobeads™ affinity matrix was added to capture proteins that were not interacting with the previously added compound. After this two hour incubation step at 4° C. beads were separated from the lysate and bead bound proteins were eluted in SDS sample buffer and subsequently separated by SDS-Polyacrylamide gel electrophoresis. The gel was stained with colloidal Coomassie and stained areas of each gel lane were cut out and subjected to in-gel proteolytic digestion with trypsin. Peptides originating from the different gel areas were labeled with isobaric tagging reagents (TMT reagents, Thermofisher) as shown in Table 7. The TMT reagents are a set of multiplexed, amine-specific, stable isotope reagents that can label peptides in up to six different biological samples enabling simultaneous identification and quantitation of peptides. The combined samples were fractionated using reversed-phase chromatography at pH 11 and fractions were subsequently analyzed with a nano-flow liquid chromatography system coupled online to a tandem mass spectrometer (LC-MSMS) experiment followed by reporter ion quantification in the MSMS spectra (Ross et al., 2004. Mol. Cell. Proteomics 3(12):1154-1169; Dayon et al., 2008. Anal. Chem. 80(8):2921-2931; Thompson et al., 2003. Anal. Chem. 75(8):1895-1904). Further experimental protocols can be found in WO2006/134056 and previous publications (Bantscheff et al., 2007. Nat. Biotechnol. 25, 1035-1044; Bantscheff et al., 2011. Nat. Biotechnol. 29(3):255-265).

ITK [1] = target: T2, ITK (Homo sapiens, UniProt Q08881); test: Kinobeads assay with quantitative mass spectrometry, ITK; assay type: binding; settings: Jurkat/Ramos lysate, read-out: ITK inhibition value (IC50)
T2 construct: purchased ProQinase GmbH, Freiburg, Germany
T2 sequence (Q08881 1-620): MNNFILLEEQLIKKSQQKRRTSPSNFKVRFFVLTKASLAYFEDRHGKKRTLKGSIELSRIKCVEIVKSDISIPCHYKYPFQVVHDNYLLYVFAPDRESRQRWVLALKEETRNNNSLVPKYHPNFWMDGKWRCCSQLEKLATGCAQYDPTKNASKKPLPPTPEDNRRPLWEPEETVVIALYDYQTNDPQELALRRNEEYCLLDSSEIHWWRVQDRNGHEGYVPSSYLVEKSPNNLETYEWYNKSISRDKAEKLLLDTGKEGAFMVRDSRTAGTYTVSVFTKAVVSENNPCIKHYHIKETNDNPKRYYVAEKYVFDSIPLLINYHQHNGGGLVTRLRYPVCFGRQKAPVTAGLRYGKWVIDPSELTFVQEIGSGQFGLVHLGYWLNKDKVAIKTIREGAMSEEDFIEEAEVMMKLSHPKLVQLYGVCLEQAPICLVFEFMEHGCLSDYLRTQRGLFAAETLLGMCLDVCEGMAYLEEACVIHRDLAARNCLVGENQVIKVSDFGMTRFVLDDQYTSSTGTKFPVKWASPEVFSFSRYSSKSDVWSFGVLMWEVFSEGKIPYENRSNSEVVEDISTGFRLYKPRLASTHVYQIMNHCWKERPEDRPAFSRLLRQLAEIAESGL
Description: as §1, §2

ITK [2] = target: T2, ITK; test: Radiometric protein kinase assay (33PanQinase, ProQinase), ITK; assay type: biochemical; settings: ATP at apparent Km (1.0 μM); for IC50: read-out: ITK enzyme assay IC50
Description: A radiometric protein kinase assay (^33PanQinase® Activity Assay; ProQinase GmbH, Freiburg, Germany) was used for measuring the kinase activity of the protein kinases BLK, BTK, ITK and JAK3. All kinase assays were performed in 96-well FlashPlates™ from PerkinElmer (Boston, Mass., USA) in a 50 μl reaction volume. The reaction cocktail was pipetted in four steps in the following order: • 20 μl of assay buffer (standard buffer) • 5 μl of ATP solution (in H2O) • 5 μl of test compound (in 10% DMSO) • 10 μl of substrate/10 μl of enzyme solution (premixed)
The reaction cocktails were incubated at 30° C. for 60 minutes. The reaction was stopped with 50 μl of 2% (v/v) H3PO4, plates were aspirated and washed two times with 200 μl 0.9% (w/v) NaCl. Incorporation of ^33Pi was determined with a microplate scintillation counter (Microbeta, Wallac). All assays were performed with a BeckmanCoulter/SAGIAN™ Core System.

[3] = test system: STAT5 phosphorylation in IL-2 stimulated YT cells; test: Cell assay with washout of compounds (pSTAT5, YT cells, MSD); assay type: cell-based, human; settings: for IC50: Homo sapiens; for retention of activity after washing: up to 4 hours after washing
Description: This time course experiment allows determination as to whether the pharmacological effect of the tested compounds persists over time even after the compound is removed from the cell samples.
Human YT cells were grown as described above. Cells were harvested by centrifugation and resuspended in RPMI0.5% heat-inactivated FBS. 3×10^5 cells were seeded in 60 μl per well in a round-bottomed 96 well plate (BD-Falcon, 353077).
Test compounds were dissolved in DMSO and a 1:3 dilution series (9 steps) was prepared. To generate a dose response curve, 30 μl of fourfold concentrated compound in 4% DMSO/RPMI/0.5% FBS were added to each cell sample in the 96 well plate resulting in a final DMSO concentration of 1% DMSO. Cells were incubated for one hour in a humidified incubator (37° C., 5% CO2). After incubation cells were washed twice by centrifugation and replacement of media (RPMI/0.5% FBS), with the exception of the time 0 plate. Washed cells were incubated for 30 min, 1, 2 and 4 hours in a humidified incubator (37° C., 5% CO2) prior to stimulation with IL-2. To each well 30 μl of a fourfold concentrated IL-2 solution (Recombinant human IL-2, Peprotech 200-02; 120 nM solution in RPMI) was added and incubated for 30 minutes at room temperature. Cells were lysed by adding 30 μl of 5× lysis buffer (MSD lysis buffer) and incubated for 10 minutes at 4° C. with gentle shaking.
The effect of compounds on STATS phosphorylation was determined in lysates using the MSD MULTI-SPOT® 96 4-spot phosphor-STAT5a,b whole cell lysatc kit (MesoScale Discovery, K150IGD-3) according to the manufacturer's protocol. Data were analysed in BioAssay using the nonlinear regression for a sigmoidal dose-response with a variable slope and IC50 values were determined.

[4] = 0.5 h, read-out: pSTAT5 inhibition pIC50, 30 min after washout, IL-2 stimulated YT cells, 30 min after washout (converted)
[5] = 2 h, read-out: pSTAT5 inhibition pIC50, 2 hours after washout, IL-2 stimulated YT cells, 2 hours after washout (converted)
[6] = 4 h, IL-2 stimulated YT cells, 4 hours after washout, read-out: pSTAT5 inhibition pIC50, 4 hours after washout (converted)

IC50 (BTK) [nM]	IC50 (ITK [1]) [nM]	IC50 (ITK [2]) [nM]	IC50 [3, 4] [nM]	IC50 [3, 5] [nM]	IC50 [3, 6] [nM]	ITK enzyme assay IC50 (ITK [2])	Structure (SMILES)	retention of activity after washing ([3]; YT cells)	activity 30 minutes after the washing of cells ([3]; YT cells, 30 minutes after washing)
12	12	3	631	79.4	126	–	C#CC(=O)Nc1cccc(Cn2ncc3cnc(Nc4cnn(C)c4)nc32)c1 [Example 3, N-(3-((6-((1-Methyl-1H-pyrazol-4-yl)amino)-1H-pyrazolo[3,4-d]pyrimidin-1-yl)methyl)phenyl)propiolamide]	retain activity for up to 4 hours after washing with some drop in activity	–
–	–	80	–	–	–	–	C=CS(=O)(=O)Nc1cccc(Cn2ncc3cnc(Nc4cnn(C)c4)nc32)c1 [Example 4, N-(3-((6-((1-Methyl-1H-pyrazol-4-yl)amino)-1H-pyrazolo[3,4-d]pyrimidin-1-yl)methyl)phenyl)ethenesulfonamide]	–	–

Second part, the compound before the results:

Structure (SMILES)	IC50 (BTK) [nM]	IC50 (ITK [1]) [nM]	IC50 (ITK [2]) [nM]	IC50 [3, 4] [nM]	IC50 [3, 5] [nM]	IC50 [3, 6] [nM]	ITK enzyme assay IC50 (ITK [2])	retention of activity after washing ([3]; YT cells)	activity 30 minutes after the washing of cells ([3]; YT cells, 30 minutes after washing)
C=CC(=O)Nc1cccc(Cn2ncc3cnc(Nc4cnn(C)c4)nc32)c1 [Example 1, N-(3-((6-((1-Methyl-1H-pyrazol-4-yl)amino)-1H-pyrazolo[3,4-d]pyrimidin-1-yl)methyl)phenyl)acrylamide]	12	86	230	200	63.1	100	–	retain activity for up to 4 hours after washing with some drop in activity	–
C=CC(=O)Nc1cc(Cn2ncc3cnc(Nc4cnn(C)c4)nc32)ccc1F [Example 2, […]]	72	818	–	–	–	–	–	–	–
CC(=O)Nc1cccc(Cn2ncc3cnc(Nc4cnn(C)c4)nc32)c1 [compound 2, N-(3-((6-((1-methyl-1H-pyrazol-4-yl)amino)-1H-pyrazolo[3,4-d]pyrimidin-1-yl)methyl)phenyl)acetamide, reference compound]	–	–	–	–	–	–	inactive	–	completely lost
